Literature values as cited in US8580318B2, “Natural water soluble extracts for the inhibition of alpha-1-adrenergic receptors” (Naturamed Ltd., priority 2007, dated 2013).

Tested on: serum prostate specific antigen (PSA)
Conditions: patients with BPH

Compound: CC(C)(C)NC(=O)[C@H]1CC[C@H]2[C@@H]3CC[C@H]4NC(=O)C=C[C@]4(C)[C@H]3CC[C@]12C [finasteride, Finasteride]
- decrease in serum prostate specific antigen (PSA) levels: approximately 50%
